Drawing on US20240368135A1 (VERTEX PHARMACEUTICALS INCORPORATED, priority 2021, published 2024), this text covers IC50 for 23 compounds.

For this assay, the target named is human NaV 1.8 (Homo sapiens, UniProt Q9Y5Y9). Nature of the assay: E-VIPR assay detecting and measuring NaV inhibition properties. It is filed as cell-based. The settings on record: HEK cells expressing truncated human NaV 1.8. The essentials:
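Membrane potential was followed by coumarin/oxonol FRET during electrical field stimulation of matrigel-seeded HEK cells carrying truncated human NaV1.8 plus KIR2.1. Dosing used 11 points, 3-fold steps, top 300 nM final, 0.625% DMSO, with or without 25% human serum.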

[1] abbreviates: no human serum, read-out: IC50 in the E-VIPR Assay.
Where [2] appears, read: in the presence of human serum (compound numbers followed by *), read-out: IC50 in the E-VIPR Assay, performed in the presence of human serum.

Read-outs that look alike come from different tables or passages of the source. A value given as a limit tells only on which side of the number the result lay.

human NaV 1.8, sequence (Q9Y5Y9 126-399 limits assumed): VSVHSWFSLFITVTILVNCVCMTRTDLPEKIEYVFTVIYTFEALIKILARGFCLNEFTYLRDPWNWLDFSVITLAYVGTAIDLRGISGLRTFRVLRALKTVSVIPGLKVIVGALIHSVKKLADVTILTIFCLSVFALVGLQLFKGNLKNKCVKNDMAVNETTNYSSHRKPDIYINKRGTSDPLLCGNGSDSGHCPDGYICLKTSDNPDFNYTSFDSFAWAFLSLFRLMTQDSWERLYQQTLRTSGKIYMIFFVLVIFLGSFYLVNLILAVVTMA
human NaV 1.8, sequence (Q9Y5Y9 660-890 limits assumed): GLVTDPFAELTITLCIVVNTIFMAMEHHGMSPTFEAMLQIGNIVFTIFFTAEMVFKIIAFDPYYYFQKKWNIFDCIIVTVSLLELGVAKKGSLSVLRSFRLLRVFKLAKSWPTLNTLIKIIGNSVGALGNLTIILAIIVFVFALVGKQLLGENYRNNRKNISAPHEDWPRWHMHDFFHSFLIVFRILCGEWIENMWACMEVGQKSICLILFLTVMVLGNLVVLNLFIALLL
human NaV 1.8, sequence (Q9Y5Y9 1148-1722 limits assumed): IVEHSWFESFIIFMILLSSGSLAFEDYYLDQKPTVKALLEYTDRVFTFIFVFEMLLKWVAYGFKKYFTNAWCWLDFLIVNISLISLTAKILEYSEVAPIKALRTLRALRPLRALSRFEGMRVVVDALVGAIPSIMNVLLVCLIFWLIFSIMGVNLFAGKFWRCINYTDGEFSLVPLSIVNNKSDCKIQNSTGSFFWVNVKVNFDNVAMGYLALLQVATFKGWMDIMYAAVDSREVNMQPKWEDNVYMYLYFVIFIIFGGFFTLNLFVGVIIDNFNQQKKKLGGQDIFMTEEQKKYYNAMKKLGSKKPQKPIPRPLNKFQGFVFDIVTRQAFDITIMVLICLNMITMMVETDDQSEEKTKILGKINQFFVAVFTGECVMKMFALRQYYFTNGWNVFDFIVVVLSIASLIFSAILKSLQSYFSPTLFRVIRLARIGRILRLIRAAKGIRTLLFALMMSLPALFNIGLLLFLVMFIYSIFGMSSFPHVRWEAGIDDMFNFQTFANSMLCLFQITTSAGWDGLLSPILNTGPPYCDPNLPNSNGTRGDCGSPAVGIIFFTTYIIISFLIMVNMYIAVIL

`C[C@H]1[C@@H](c2ccc(F)c(F)c2OCCO)[C@H](C(=O)Nc2cc(C3CC3)n(C)n2)O[C@@]1(C)C(F)(F)F` [Compound 546, (2R,3S,4S,5R)-N-(5-cyclopropyl-1-methyl-1H-pyrazol-3-yl)-3-(3,4-difluoro-2-(2-hydroxyethoxy)phenyl)-4,5-dimethyl-5-(trifluoromethyl)tetrahydrofuran-2-carboxamide]: the half-inhibitory concentration (IC50) under setting [1] is ≥ 1 µM.

`COc1c([C@H]2[C@H](C(=O)Nc3ccc(C(N)=O)nc3)O[C@@](C)(C(F)(F)F)[C@H]2C)ccc(OC(F)F)c1F` [Compound 682, 5-((2R,3S,4S,5R)-3-(4-(difluoromethoxy)-3-fluoro-2-methoxyphenyl)-4,5-dimethyl-5-(trifluoromethyl)tetrahydrofuran-2-carboxamido)picolinamide]: the IC50 under setting [1] is < 0.01 µM. On to `COc1c([C@H]2[C@H](C(=O)NC3CN(S(C)(=O)=O)C3)O[C@@](C)(C(F)(F)F)[C@H]2C)ccc(F)c1F` [Compound 307, (2R,3S,4S,5R)-3-(3,4-difluoro-2-methoxyphenyl)-4,5-dimethyl-N-(1-(methylsulfonyl)azetidin-3-yl)-5-(trifluoromethyl)tetrahydrofuran-2-carboxamide], for which the IC50 under setting [1] was ≥ 1 µM. As to `Cc1c(F)ccc(C2C(C(=O)Nc3ccnc(S(C)(=O)=O)c3)OC(C)(C(F)(F)F)C2C)c1OC(F)F` (centres unmarked) [Compound 97, 3-[2-(difluoromethoxy)-4-fluoro-3-methyl-phenyl]-4,5-dimethyl-N-(2-methylsulfonyl-4-pyridyl)-5-(trifluoromethyl)tetrahydrofuran-2-carboxamide], the half-maximal inhibitory concentration (IC50) under setting [1] is < 0.01 µM. Consider `CNC1CCN(c2cc(NC(=O)[C@@H]3O[C@@](C)(C(F)(F)F)[C@@H](C)[C@H]3c3ccc(F)c(F)c3OC)ccn2)C1=O` (single isomer, unassigned) [Compound 501, rel-(2R*,3S*,4S*,5R*)-3-(3,4-difluoro-2-methoxyphenyl)-4,5-dimethyl-N-(2-(3-(methylamino)-2-oxopyrrolidin-1-yl)pyridin-4-yl)-5-(trifluoromethyl)tetrahydrofuran-2-carboxamide], for which the IC50 under setting [1] lay within 0.01 to 0.1 µM.

In the case of `COc1c([C@H]2[C@H](C(=O)Nc3ccc(-n4ccnc4)nc3)O[C@@](C)(C(F)(F)F)[C@H]2C)ccc(F)c1F` [Compound 401, (2R,3S,4S,5R)-N-(6-(1H-imidazol-1-yl)pyridin-3-yl)-3-(3,4-difluoro-2-methoxyphenyl)-4,5-dimethyl-5-(trifluoromethyl)-tetrahydrofuran-2-carboxamide], under setting [1], the IC50 was 0.01 to 0.1 µM.

For `COCC(c1cc(NC(=O)[C@@H]2O[C@@](C)(C(F)(F)F)[C@@H](C)[C@H]2c2ccc(F)c(F)c2OC)ccn1)N(C)C` (single isomer, unassigned) [Compound 424, rel-(2R*,3S*,4S*,5R*)-3-(3,4-difluoro-2-methoxyphenyl)-N-(2-(1-(dimethylamino)-2-methoxyethyl)pyridin-4-yl)-4,5-dimethyl-5-(trifluoromethyl)-tetrahydrofuran-2-carboxamide], the IC50 under setting [1] was < 0.01 µM. Regarding `COc1c([C@H]2[C@H](C(=O)Nc3cncc(S(=O)(=O)N(C)C)c3)O[C@@](C)(C(F)(F)F)[C@H]2C)ccc(F)c1F` (stereo in doubt) [Compound 453, rel-(2R,3S,4S,5R)-3-(3,4-difluoro-2-methoxyphenyl)-N-(5-(N,N-dimethylsulfamoyl)pyridin-3-yl)-4,5-dimethyl-5-(trifluoromethyl)tetrahydrofuran-2-carboxamide], the IC50 under setting [1] was 0.01 to 0.1 µM. In the case of `COc1c([C@H]2[C@H](C(=O)Nc3ccnc(C(C)(O)CF)c3)O[C@@](C)(C(F)(F)F)[C@H]2C)ccc(F)c1F` (single isomer, unassigned) [Compound 226, rel-(2R*,3S*,4S*,5R*)-3-(3,4-difluoro-2-methoxyphenyl)-N-(2-(1-fluoro-2-hydroxypropan-2-yl)pyridin-4-yl)-4,5-dimethyl-5-(trifluoromethyl)tetrahydrofuran-2-carboxamide], the IC50 under setting [1] was < 0.01 µM. On to `COc1c([C@H]2[C@H](C(=O)Nc3cc(C(O)CO)ncc3F)O[C@@](C)(C(F)(F)F)[C@H]2C)ccc(F)c1C` (single isomer, unassigned) [Compound 140], for which the IC50 under setting [2] lay within 0.01 to 0.1 µM. Still for that read-out and setting: as for `COc1c([C@H]2[C@H](C(=O)Nc3ccnc(C(CO)OC)c3)O[C@@](C)(C(F)(F)F)[C@H]2C)ccc(F)c1F` (single isomer, unassigned) [Compound 249, rel-(2R*,3S*,4S*,5R*)-3-(3,4-difluoro-2-methoxyphenyl)-N-(2-(2-hydroxy-1-methoxyethyl)pyridin-4-yl)-4,5-dimethyl-5-(trifluoromethyl)tetrahydrofuran-2-carboxamide], the figure is < 0.01 µM.

Turning to `COCC1(CNC(=O)[C@@H]2O[C@@](C)(C(F)(F)F)[C@@H](C)[C@H]2c2ccc(F)c(F)c2OC)CCC1` [Compound 276, (2R,3S,4S,5R)-3-(3,4-difluoro-2-methoxyphenyl)-N-((1-(methoxymethyl)cyclobutyl)methyl)-4,5-dimethyl-5-(trifluoromethyl)tetrahydrofuran-2-carboxamide], the concentration for half-maximal inhibition (IC50) under setting [1] was ≥ 1 µM. Consider `Cc1nocc1NC(=O)[C@@H]1O[C@@](C)(C(F)(F)F)[C@@H](C)[C@H]1c1ccc(F)c(F)c1OC[C@H](C)N1CC2(COC2)C1` [Compound 623, (2R,3S,4S,5R)-3-[3,4-difluoro-2-[(2S)-2-(2-oxa-6-azaspiro[3.3]heptan-6-yl)propoxy]phenyl]-4,5-dimethyl-N-(3-methylisoxazol-4-yl)-5-(trifluoromethyl)tetrahydrofuran-2-carboxamide], for which the IC50 under setting [1] fell in the range of 0.01 to 0.1 µM. As for `COc1c([C@H]2[C@H](C(=O)Nc3ccc4nc[nH]c4c3)O[C@@](C)(C(F)(F)F)[C@H]2C)ccc(F)c1F` [Compound 212, (2R,3S,4S,5R)-N-(1H-benzo[d]imidazol-6-yl)-3-(3,4-difluoro-2-methoxyphenyl)-4,5-dimethyl-5-(trifluoromethyl)tetrahydrofuran-2-carboxamide], the concentration for half-maximal inhibition (IC50) under setting [2] was 0.1 to 1 µM. On to `C[C@H]1[C@@H](c2ccc(F)c(F)c2OC(F)F)[C@H](C(=O)Nc2cncc(C#N)c2)O[C@@]1(C)C(F)(F)F` (single isomer, unassigned) [Compound 70], for which the IC50 under setting [2] lay within 0.1 to 1 µM. Take `COc1c(C2C(C(=O)Nc3ccncn3)OC(C)(C(F)(F)F)C2C)ccc(F)c1F` (single isomer, unassigned) [Compound 35, 3-(3,4-difluoro-2-methoxy-phenyl)-4,5-dimethyl-N-pyrimidin-4-yl-5-(trifluoromethyl)tetrahydrofuran-2-carboxamide]: under setting [1], the IC50 is ≥ 1 µM. In the case of `COc1c([C@H]2[C@H](C(=O)Nc3ccnc(N4CCN(C)[C@H](C)C4=O)c3)O[C@@](C)(C(F)(F)F)[C@H]2C)ccc(F)c1F` [Compound 475, (2R,3S,4S,5R)-3-(3,4-difluoro-2-methoxyphenyl)-N-(2-((R)-3,4-dimethyl-2-oxopiperazin-1-yl)pyridin-4-yl)-4,5-dimethyl-5-(trifluoromethyl)tetrahydrofuran-2-carboxamide], under setting [1], the IC50 was in the range of 0.01 to 0.1 µM. With `COCc1cc(C)nc(NC(=O)[C@@H]2O[C@@](C)(C(F)(F)F)[C@@H](C)[C@H]2c2ccc(F)c(F)c2OCCO)n1` [Compound 562, (2R,3S,4S,5R)-3-(3,4-difluoro-2-(2-hydroxyethoxy)phenyl)-N-(4-(methoxymethyl)-6-methylpyrimidin-2-yl)-4,5-dimethyl-5-(trifluoromethyl)tetrahydrofuran-2-carboxamide], under setting [1], the IC50 is ≥ 1 µM. On the same count and under the same terms, as for `COc1c([C@H]2[C@H](C(=O)NCCc3c(C)n[nH]c3C)O[C@@](C)(C(F)(F)F)[C@H]2C)ccc(F)c1F` [Compound 285, (2R,3S,4S,5R)-3-(3,4-difluoro-2-methoxyphenyl)-N-(2-(3,5-dimethyl-1H-pyrazol-4-yl)ethyl)-4,5-dimethyl-5-(trifluoromethyl)tetrahydrofuran-2-carboxamide], the figure is ≥ 1 µM. Regarding `CNC1(c2cc(NC(=O)[C@@H]3O[C@@](C)(C(F)(F)F)[C@@H](C)[C@H]3c3ccc(F)c(F)c3OC)ccn2)COC1` [Compound 361, (2R,3S,4S,5R)-3-(3,4-difluoro-2-methoxyphenyl)-4,5-dimethyl-N-(2-(3-(methylamino)oxetan-3-yl)pyridin-4-yl)-5-(trifluoromethyl)tetrahydrofuran-2-carboxamide], the IC50 under setting [1] is < 0.01 µM. Take `C[C@@H]1[C@H](c2ccc(F)c(F)c2OC(F)F)[C@@H](C(=O)Nc2cccnc2)O[C@]1(C)C(F)(F)F` (single isomer, unassigned) [Compound 66]: the IC50 under setting [2] is ≥ 1 µM. For `C[C@H]1[C@@H](c2ccc(F)c(F)c2OCCN2C[C@H]3COC[C@H]3C2)[C@H](C(=O)Nc2cc(C(N)=O)nn2C)O[C@@]1(C)C(F)(F)F` [Compound 597, 5-[[(2R,3S,4S,5R)-3-[2-[2-[(3aS,6aR)-1,3,3a,4,6,6a-hexahydrofuro[3,4-c]pyrrol-5-yl]ethoxy]-3,4-difluoro-phenyl]-4,5-dimethyl-5-(trifluoromethyl)tetrahydrofuran-2-carbonyl]amino]-1-methyl-pyrazole-3-carboxamide], the IC50 under setting [1] lay in the range of 0.01 to 0.1 µM. Same read-out and setting: with `COc1c([C@H]2[C@H](C(=O)Nc3ccnc(N4C[C@H]5CC[C@@H](C4=O)N5C)c3)O[C@@](C)(C(F)(F)F)[C@H]2C)ccc(F)c1F` (single isomer, unassigned) [Compound 503, rel-(2R*,3S*,4S*,5R*)-3-(3,4-difluoro-2-methoxyphenyl)-4,5-dimethyl-N-(2-((1S,5R)-8-methyl-2-oxo-3,8-diazabicyclo[3.2.1]octan-3-yl)pyridin-4-yl)-5-(trifluoromethyl)tetrahydrofuran-2-carboxamide] the figure was < 0.01 µM.
